Measured values: ChEMBL document CHEMBL1795286, “A concise synthesis and antimicrobial activities of 3-polyamino-23,24-bisnorcholanes as steroid-polyamine conjugates” (2011)

Tests used:
Micrococcus luteus = assay: Antimicrobial activity against Micrococcus luteus ATCC 9341 after 18 hrs by twofold agar dilution method; type: functional; conditions: ATCC 9341, 18 h
Escherichia coli [1] = assay: Antimicrobial activity against Escherichia coli ATCC 25922 after 18 hrs by twofold agar dilution method; type: functional; conditions: ATCC 25922, 18 h
Escherichia coli [2] = assay: Antimicrobial activity against Escherichia coli ATCC 10536 after 18 hrs by twofold agar dilution method; type: functional; conditions: ATCC 10536, 18 h
Bacillus cereus = assay: Antimicrobial activity against Bacillus cereus ATCC 27348 after 18 hrs by twofold agar dilution method; type: functional; conditions: ATCC 27348, 18 h
Escherichia coli [3] = assay: Antimicrobial activity against Escherichia coli 851E after 18 hrs by twofold agar dilution method; type: functional
Serratia marcescens [4] = assay: Antimicrobial activity against Serratia marcescens 1826E after 18 hrs by twofold agar dilution method; type: functional
[5] = test system: Acinetobacter calcoaceticus; assay: Antimicrobial activity against Acinetobacter calcoaceticus ATCC 15473 after 18 hrs by twofold agar dilution method; type: functional; conditions: ATCC 15473, 18 h
Serratia marcescens [6] = assay: Antimicrobial activity against Serratia marcescens ATCC 27117 after 18 hrs by twofold agar dilution method; type: functional; conditions: ATCC 27117, 18 h
Enterococcus faecalis = assay: Antimicrobial activity against Enterococcus faecalis ATCC 29212 after 18 hrs by twofold agar dilution method; type: functional; conditions: ATCC 29212, 18 h
Moraxella catarrhalis [7] = assay: Antimicrobial activity against Moraxella catarrhalis C2431 after 18 hrs by twofold agar dilution method; type: functional; conditions: C2431, 18 h
Staphylococcus aureus [8] = assay: Antimicrobial activity against Staphylococcus aureus 241 after 18 hrs by twofold agar dilution method; type: functional; conditions: Staphylococcus aureus, 241, 18 h
Bacillus subtilis = assay: Antimicrobial activity against Bacillus subtilis ATCC 6633 after 18 hrs by twofold agar dilution method; type: functional; conditions: ATCC 6633, 18 h
Proteus vulgaris = assay: Antimicrobial activity against Proteus vulgaris 6059 after 18 hrs by twofold agar dilution method; type: functional; conditions: Proteus vulgaris, 6059, 18 h
Pseudomonas aeruginosa = assay: Antimicrobial activity against Pseudomonas aeruginosa 6065Y after 18 hrs by twofold agar dilution method; type: functional
Citrobacter freundii = assay: Antimicrobial activity against Citrobacter freundii 8090 after 18 hrs by twofold agar dilution method; type: functional; conditions: Citrobacter freundii, 8090, 18 h
Staphylococcus aureus [9] = assay: Antimicrobial activity against Staphylococcus aureus ATCC 25923 after 18 hrs by twofold agar dilution method; type: functional; conditions: ATCC 25923, 18 h, read-out: MIC
Klebsiella pneumoniae = assay: Antimicrobial activity against Klebsiella pneumoniae 2011E after 18 hrs by twofold agar dilution method; type: functional
Enterobacter cloacae [10] = assay: Antimicrobial activity against Enterobacter cloacae ATCC 27508 after 18 hrs by twofold agar dilution method; type: functional; conditions: ATCC 27508, 18 h
Morganella morganii = assay: Antimicrobial activity against Morganella morganii 1375E after 18 hrs by twofold agar dilution method; type: functional
Staphylococcus aureus [11] = assay: Antimicrobial activity against Staphylococcus aureus ATCC 6538P after 18 hrs by twofold agar dilution method; type: functional
Salmonella typhimurium [12] = assay: Antimicrobial activity against Salmonella Typhimurium ATCC 14028 after 18 hrs by two-fold agar dilution method; type: functional, Salmonella enterica subsp. enterica serovar Typhimurium; conditions: Salmonella enterica, ATCC 14028, 18 h
Enterobacter cloacae [13] = assay: Antimicrobial activity against Enterobacter cloacae P99 after 18 hrs by twofold agar dilution method; type: functional; conditions: P99, 18 h
Staphylococcus aureus [14] = assay: Antimicrobial activity against Staphylococcus aureus giorgio after 18 hrs by twofold agar dilution method; type: functional
[15] = test system: Staphylococcus epidermidis; assay: Antimicrobial activity against Staphylococcus epidermidis 887E after 18 hrs by twofold agar dilution method; type: functional
Moraxella catarrhalis [16] = assay: Antimicrobial activity against Moraxella catarrhalis 25240 after 18 hrs by twofold agar dilution method; type: functional; conditions: Moraxella catarrhalis, 25240, 18 h
Citrobacter koseri = assay: Antimicrobial activity against Citrobacter diversus 2046 after 18 hrs by twofold agar dilution method; type: functional; conditions: Citrobacter koseri, 2046, 18 h
Salmonella typhimurium [17] = assay: Antimicrobial activity against Salmonella typhimurium ATCC 13311 after 18 hrs by twofold agar dilution method; type: functional, Salmonella enterica subsp. enterica serovar Typhimurium; conditions: Salmonella enterica, ATCC 13311, 18 h
Staphylococcus aureus [18] = assay: Antimicrobial activity against Staphylococcus aureus 77 after 18 hrs by twofold agar dilution method; type: functional; conditions: Staphylococcus aureus, 77, 18 h
Klebsiella aerogenes = assay: Antimicrobial activity against Klebsiella aerogenes harboring beta-lactamase SHV-1 1976E mutant after 18 hrs by twofold agar dilution method; type: functional
Escherichia coli [19] = assay: Antimicrobial activity against Escherichia coli 3190Y after 18 hrs by twofold agar dilution method; type: functional
Bacillus licheniformis = assay: Antimicrobial activity against Bacillus licheniformis EMR after 18 hrs by twofold agar dilution method; type: functional

## C[C@H](CO)[C@H]1CC[C@H]2[C@@H]3CC[C@H]4C[C@H](NCCCNCCCCN)CC[C@]4(C)[C@H]3CC[C@]12C.Cl.Cl.Cl
Micrococcus luteus; read-out: MIC
  MIC: 8 µg/mL
Escherichia coli [1]; read-out: MIC
  MIC: 32 µg/mL
Escherichia coli [2]; read-out: MIC
  MIC: 32 µg/mL
Bacillus cereus
  MIC: > 32 µg/mL
Escherichia coli [3]
  MIC: > 32 µg/mL
Serratia marcescens [4]
  MIC: > 32 µg/mL
[5]
  MIC: > 32 µg/mL
Serratia marcescens [6]
  MIC: > 32 µg/mL
Enterococcus faecalis; read-out: MIC
  MIC: 32 µg/mL
Moraxella catarrhalis [7]
  MIC: > 32 µg/mL
Staphylococcus aureus [8]; read-out: MIC
  MIC: 4 µg/mL
Bacillus subtilis
  MIC: 8 µg/mL
Proteus vulgaris
  MIC: > 32 µg/mL
Pseudomonas aeruginosa
  MIC: > 32 µg/mL
Citrobacter freundii
  MIC: > 32 µg/mL
Staphylococcus aureus [9]
  MIC: 16 µg/mL
Klebsiella pneumoniae
  MIC: > 32 µg/mL
Enterobacter cloacae [10]
  MIC: > 32 µg/mL
Morganella morganii
  MIC: > 32 µg/mL
Staphylococcus aureus [11]
  MIC: 4 µg/mL
Salmonella typhimurium [12]
  MIC: > 32 µg/mL
Enterobacter cloacae [13]
  MIC: > 32 µg/mL
Staphylococcus aureus [14]
  MIC: 8 µg/mL
[15]; read-out: MIC
  MIC: 16 µg/mL
Moraxella catarrhalis [16]; read-out: MIC
  MIC: < 32 µg/mL
Citrobacter koseri
  MIC: > 32 µg/mL
Salmonella typhimurium [17]
  MIC: > 32 µg/mL
Staphylococcus aureus [18]; read-out: MIC
  MIC: 4 µg/mL
Klebsiella aerogenes
  MIC: > 32 µg/mL
Escherichia coli [19]
  MIC: > 32 µg/mL
Bacillus licheniformis; read-out: MIC
  MIC: 16 µg/mL

## C[C@H](CO)[C@H]1CC[C@H]2[C@@H]3CC[C@H]4C[C@@H](NCCCNCCCCN)CC[C@]4(C)[C@H]3CC[C@]12C.Cl.Cl.Cl
Micrococcus luteus; read-out: MIC
  MIC: 16 µg/mL
Escherichia coli [1]; read-out: MIC
  MIC: < 32 µg/mL
Escherichia coli [2]; read-out: MIC
  MIC: < 32 µg/mL
Bacillus cereus
  MIC: > 32 µg/mL
Escherichia coli [3]
  MIC: > 32 µg/mL
Serratia marcescens [4]
  MIC: > 32 µg/mL
[5]
  MIC: > 32 µg/mL
Serratia marcescens [6]
  MIC: > 32 µg/mL
Enterococcus faecalis
  MIC: > 32 µg/mL
Moraxella catarrhalis [7]; read-out: MIC
  MIC: 32 µg/mL
Staphylococcus aureus [8]; read-out: MIC
  MIC: 8 µg/mL
Bacillus subtilis
  MIC: 8 µg/mL
Proteus vulgaris
  MIC: > 32 µg/mL
Pseudomonas aeruginosa
  MIC: > 32 µg/mL
Citrobacter freundii
  MIC: > 32 µg/mL
Staphylococcus aureus [9]
  MIC: 16 µg/mL
Klebsiella pneumoniae
  MIC: > 32 µg/mL
Enterobacter cloacae [10]
  MIC: > 32 µg/mL
Morganella morganii
  MIC: > 32 µg/mL
Staphylococcus aureus [11]
  MIC: 8 µg/mL
Salmonella typhimurium [12]
  MIC: > 32 µg/mL
Enterobacter cloacae [13]
  MIC: > 32 µg/mL
Staphylococcus aureus [14]
  MIC: 16 µg/mL
[15]; read-out: MIC
  MIC: 16 µg/mL
Moraxella catarrhalis [16]; read-out: MIC
  MIC: 32 µg/mL
Citrobacter koseri
  MIC: > 32 µg/mL
Salmonella typhimurium [17]
  MIC: > 32 µg/mL
Staphylococcus aureus [18]; read-out: MIC
  MIC: 32 µg/mL
Klebsiella aerogenes
  MIC: > 32 µg/mL
Escherichia coli [19]
  MIC: > 32 µg/mL
Bacillus licheniformis
  MIC: > 32 µg/mL

## C[C@H](CO)[C@H]1CC[C@H]2[C@@H]3CC[C@@H]4C[C@H](NCCCNCCCCN)CC[C@]4(C)[C@H]3CC[C@]12C.Cl.Cl.Cl
Micrococcus luteus
  MIC: > 32 µg/mL
Escherichia coli [1]
  MIC: > 32 µg/mL
Escherichia coli [2]; read-out: MIC
  MIC: < 32 µg/mL
Bacillus cereus
  MIC: > 32 µg/mL
Escherichia coli [3]
  MIC: > 32 µg/mL
Serratia marcescens [4]
  MIC: > 32 µg/mL
[5]
  MIC: > 32 µg/mL
Serratia marcescens [6]
  MIC: > 32 µg/mL
Enterococcus faecalis
  MIC: > 32 µg/mL
Moraxella catarrhalis [7]
  MIC: > 32 µg/mL
Staphylococcus aureus [8]
  MIC: > 32 µg/mL
Bacillus subtilis
  MIC: 32 µg/mL
Proteus vulgaris
  MIC: > 32 µg/mL
Pseudomonas aeruginosa
  MIC: > 32 µg/mL
Citrobacter freundii
  MIC: > 32 µg/mL
Staphylococcus aureus [9]
  MIC: 32 µg/mL
Klebsiella pneumoniae
  MIC: > 32 µg/mL
Enterobacter cloacae [10]
  MIC: > 32 µg/mL
Morganella morganii
  MIC: > 32 µg/mL
Staphylococcus aureus [11]
  MIC: 32 µg/mL
Salmonella typhimurium [12]
  MIC: > 32 µg/mL
Enterobacter cloacae [13]
  MIC: > 32 µg/mL
Staphylococcus aureus [14]
  MIC: 32 µg/mL
[15]
  MIC: > 32 µg/mL
Moraxella catarrhalis [16]
  MIC: > 32 µg/mL
Citrobacter koseri
  MIC: > 32 µg/mL
Salmonella typhimurium [17]
  MIC: > 32 µg/mL
Staphylococcus aureus [18]; read-out: MIC
  MIC: 32 µg/mL
Klebsiella aerogenes
  MIC: > 32 µg/mL
Escherichia coli [19]; read-out: MIC
  MIC: < 32 µg/mL
Bacillus licheniformis; read-out: MIC
  MIC: < 32 µg/mL

## C[C@H](CO)[C@H]1CC[C@H]2[C@@H]3CC[C@@H]4C[C@@H](NCCCNCCCCN)CC[C@]4(C)[C@H]3CC[C@]12C.Cl.Cl.Cl
Micrococcus luteus; read-out: MIC
  MIC: 8 µg/mL
Escherichia coli [1]; read-out: MIC
  MIC: < 32 µg/mL
Escherichia coli [2]
  MIC: > 32 µg/mL
Bacillus cereus; read-out: MIC
  MIC: 32 µg/mL
Escherichia coli [3]
  MIC: > 32 µg/mL
Serratia marcescens [4]
  MIC: > 32 µg/mL
[5]
  MIC: > 32 µg/mL
Serratia marcescens [6]
  MIC: > 32 µg/mL
Enterococcus faecalis; read-out: MIC
  MIC: < 32 µg/mL
Moraxella catarrhalis [7]
  MIC: > 32 µg/mL
Staphylococcus aureus [8]; read-out: MIC
  MIC: 8 µg/mL
Bacillus subtilis
  MIC: 8 µg/mL
Proteus vulgaris
  MIC: > 32 µg/mL
Pseudomonas aeruginosa
  MIC: > 32 µg/mL
Citrobacter freundii
  MIC: > 32 µg/mL
Staphylococcus aureus [9]
  MIC: 16 µg/mL
Klebsiella pneumoniae
  MIC: > 32 µg/mL
Enterobacter cloacae [10]
  MIC: > 32 µg/mL
Morganella morganii
  MIC: > 32 µg/mL
Staphylococcus aureus [11]
  MIC: 8 µg/mL
Salmonella typhimurium [12]
  MIC: > 32 µg/mL
Enterobacter cloacae [13]
  MIC: > 32 µg/mL
Staphylococcus aureus [14]
  MIC: 16 µg/mL
[15]; read-out: MIC
  MIC: 32 µg/mL
Moraxella catarrhalis [16]
  MIC: > 32 µg/mL
Citrobacter koseri
  MIC: > 32 µg/mL
Salmonella typhimurium [17]
  MIC: > 32 µg/mL
Staphylococcus aureus [18]
  MIC: > 32 µg/mL
Klebsiella aerogenes
  MIC: > 32 µg/mL
Escherichia coli [19]
  MIC: > 32 µg/mL
Bacillus licheniformis; read-out: MIC
  MIC: 32 µg/mL
